Test results published in patent US11918686B2, “Lipid bilayer coated mesoporous silica nanoparticles with a high loading capacity for one or more anticancer agents” (The Regents of the University of California, priority 2013, dated 2024).

Experiments:
[1] = Blood biochemistry; assay type: in vivo, mice; conditions: serum
Procedure: Following the animal experiments described above, the mice were sacrificed on the 38th day and serum was collected by centrifuging the whole blood at 5,000 rpm for 15 min. The biochemical parameters were assayed by UCLA Division of Laboratory Animal Medicine (DLAM) diagnostic laboratory services.

[2] = system: PDAC; conditions: previously untreated PDAC patients with metastatic disease; cited from earlier work
[3] = Animal body weight during treatment; assay type: in vivo, nude mice; conditions: compared to saline-treated BxPC3 tumor-bearing mice
Procedure: (A) The animal treatments are described in the method section. BxPC3 cells were subcutaneously injected into mice 7 days before treatments (gray boxes). These animals received six i.v. injections (red boxes) every 3-6 days (green boxes) for 38 days as shown. The tumor inhibition effect of two-wave treatment was compared to saline, GEM-Lip alone, free GEM, empty liposome, and TGFβi-MSNP. Tumor size was accurately measured 1-2 times per week. Tumor weight was calculated according to the formula Tumor weight (mg)=(length in mm)×(width in mm)2/2. *P<0.05, compared to GEM-Lip group. (B) The animal weights were recorded at indicate time points and expressed for the experimental duration. *P<0.05, compared to saline; #P<0.05, compared to GEM-Lip. (C) Histological analyses of kidney sections were performed by UCLA DLAM diagnostic laboratory services. The sections were stained with hematoxylin/eosin (H&E) and examined by light microscopy. Representative images are shown. […]
One week after tumor implantation, the BxPC-3 tumor-bearing mice were randomly divided into six groups. […] The body weight and tumor size were accurately recorded one to two times per week. Tumor weight was calculated according to the formula Tumor weight (mg)=(length in mm)×(width in mm)^2/2.

[4] = system: cytidine deaminase (CDA); BxPC3 cells; test: Protection against CDA-mediated GEM inactivation (MTS assay); assay type: cell-based, human; conditions: CDA 100 ng/mL, 1 h at 37° C., then BxPC3 cells 72 h
Procedure: We also assess the ability of the liposome to protect GEM against the effect of on cytidine deaminase (CDA), which plays a key role in drug inactivation (circulatory half-life of <8 minutes) in the clinic. Briefly, free GEM or GEM-laden liposomes were mixed with CDA enzyme at a concentration of 100 ng/mL in the incubation medium for 1 h at 37° C. The incubation media were then added to BxPC3 cells, which were cultured in 96 wells plate for 72 h. IC50 values were determined by the MTS assay for each group. The results were compared to the IC50 values for GEM or GEM-liposomes, not incubated with CDA. […] By contrast, free GEM was not protected against the effect of CDA.

[5] = in the clinic; cited from earlier work
[6] = Histology of kidney, liver and spleen; assay type: in vivo, mice; conditions: H&E, day 38
Procedure: (A) The animal treatments are described in the method section. BxPC3 cells were subcutaneously injected into mice 7 days before treatments (gray boxes). These animals received six i.v. injections (red boxes) every 3-6 days (green boxes) for 38 days as shown. The tumor inhibition effect of two-wave treatment was compared to saline, GEM-Lip alone, free GEM, empty liposome, and TGFβi-MSNP. Tumor size was accurately measured 1-2 times per week. Tumor weight was calculated according to the formula Tumor weight (mg)=(length in mm)×(width in mm)2/2. *P<0.05, compared to GEM-Lip group. (B) The animal weights were recorded at indicate time points and expressed for the experimental duration. *P<0.05, compared to saline; #P<0.05, compared to GEM-Lip. (C) Histological analyses of kidney sections were performed by UCLA DLAM diagnostic laboratory services. The sections were stained with hematoxylin/eosin (H&E) and examined by light microscopy. Representative images are shown. Higher magnification images were provided to shown the swelling and edema occur in Bowman's space, a morphological abnormality of GEM-induced renal toxicity. White arrows point to normal Bowman's space in glomerulus, and the black arrows point to the swelling and edema occur in Bowman's space.
Appropriate size sections of the tumor, liver, kidney, and spleen were fixed in 10% formalin and then embedded into paraffin. […]

[7] = system: Smad2 phosphorylation in PCs; test: Smad2 activation assay (pSmad2 immunofluorescence); assay type: cell-based, human; conditions: PCs treated with 2 ng/mL TGF-β, inhibitor dose of 1 M
Procedure: (A) HDME cells (10^4 cells/mL) and HSM cells (5×10^3 cells/mL) were first stained by CellTracker™ Green CMFDA (Invitrogen, Grand Island, NY) and CellTracker™ Red CMTPX (Invitrogen, Grand Island, NY) according the manufacture's instruction 24 h before experiment. After live cell staining, ECs were treated with 2 ng/mL of TGF-β for 3 h and PCs were treated with […] or TGFβi-MSNP at inhibitor dose of 1 μM for 3 h. Subsequently, both cell types were co-cultured in Matrigel-coated 6-well plates for further incubation of 16 h at 37° C. PC/EC adhesions were quantitatively determined from five fields of three independent samples with the fluorescent microscope (Zeiss, Germany). *, P<0.05. (B) Use of immunofluorescence assay to determine the level of Smad2 phosphorylation. PCs were seeded in 8-well chamber slides. 16 h post cell seeding, PCs were treated with 2 ng/mL TGF-β for 3 h. Subsequently, the cells were treated with TGFβi-laden MSNP at the inhibitor dose of 1 M for 1-24 h. […] The slides were visualized under a fluorescence microscope. (C) The signal intensity of the green channel, reflecting activated Smad2 (pSmad2), was calculated by Image J software (version 1.37c, NIH). *, P<0.05.
Smad2 activation was determined using an immunofluorescent staining in 8-well chamber slides in which 4×10^4 PCs were cultured in each well containing 0.4 mL culture medium. […]

[8] = system: PC coverage of ECs in BxPC3 xenograft; test: CD31/NG2 co-staining of ECs and PCs in BxPC3 xenograft; assay type: in vivo, nude mice; conditions: i.v., inhibitor dose 1 mg/kg, tumor collected 1-2 h post injection
Procedure: “T” indicates tumor cells. Arrows point out stroma. (B) Tumor-bearing animals (tumor size of 0.8˜1.0 cm in diameter) were divided into two groups and received i.v. injection of TGFβi-MSNP at inhibitor dose of 1 mg/kg (MSNP dose of 2 mg/kg). Saline and i.v. injection of free inhibitor at same dose were used as control. Tumor tissues were quickly collected 1-2 h post injection and OCT embedded for frozen section and dual color immunohistochemistry staining. The procedure of the staining was provided in the method section. This dual color staining that labels EC maker CD31 in green (FITC) and PC maker NG2 in red (Alexa fluor 594) were used to compare the effect of tumor blood vessel integrity and quantify the extent of PC/EC association. Zoom-in images were provided at higher magnification to show the extent of PC/EC association in each group. PC covered EC were quantified in three random fields in each group. *, P<0.05. […]
The tumor tissues were rapidly embedded by OCT reagent before sectioning to provide 4 m thick slices. […] The slides were visualized under a fluorescence microscope. The PC coverage was counted from three randomly selected fields.

[9] = system: tumor; conditions: animal study; cited from earlier work

Nc1ccn([C@@H]2O[C@H](CO)[C@@H](O)C2(F)F)c(=O)n1 [Free GEM, gemcitabine]
ALB ([1]; day 38): 3.2 ± 0.1 g/dL
ALP ([1]; day 38): 55.8 ± 9.8 U/L
ALT ([1]; day 38): 42.5 ± 33.8 U/L
AST ([1]; day 38): 222 ± 178 U/L
BUN ([1]; day 38): 38.0 ± 11.3 mg/dL
CA ([1]; day 38): 9.4 ± 0.3 mg/dL
CHOL ([1]; day 38): 58.7 ± 4.0 mg/dL
CK ([1]; day 38): 512.0 ± 39.6 U/L
CO2 ([1]; day 38): 20.5 ± 2.8 mEq/L
CREAT ([1]; day 38): 0.2 ± 0.0 mg/dL
DBILI ([1]; day 38): 0.7 ± 0.5 mg/dL
GGT ([1]; day 38): 5.3 ± 1.155 U/L
GLU ([1]; day 38): 128.3 ± 16.9 mg/dL
PHOS ([1]; day 38): 6.1 ± 1 mg/dL
TBILI ([1]; day 38): 0.5 ± 0.2 mg/dL
TP ([1]; day 38): 5.1 ± 0.2 g/dL
BUN CR ([1]; day 38, BUN-to-creatinine ratio): 191 ± 16
median overall survival [2]: 6.7 months
body weight change [3]: reduced weight gain
protection of GEM against CDA [4]: not protected
circulatory half-life [5]: < 8 min
kidney histology (glomerular swelling and edema of Bowman's space) [6]: intermediate nephrotoxicity

c1ccc(-c2[nH]ncc2-c2ccnc3ccccc23)nc1 [LY364947]
duration of inhibition of Smad2 phosphorylation [7]: 6 h
composite fluorescence staining of PC overlap with ECs in tumor [8]: slight but non-significant reduction

CC(=O)O[C@H]1C(=O)[C@@]2(C)[C@H]([C@H](OC(=O)c3ccccc3)[C@]3(O)C[C@H](OC(=O)[C@H](O)[C@@H](NC(=O)c4ccccc4)c4ccccc4)C(C)=C1C3(C)C)[C@]1(OC(C)=O)CO[C@@H]1C[C@@H]2O [paclitaxel]
increase of GEM content in the tumor [9]: 2.8 fold
